According to publication PMC9081825 (2022):

How the values were obtained:
Assay in all cases: QD fluorescence recovery on release from amSWCNT
[1] = tested on: A08min-QDs (multi-QD mixture, nanocomplex 1) (DNA, aptamer) GGCAGTGTGGGCGAATCTATGCGTACCGTTCGATATCGTG; conditions: 137 mM NaCl, 2.7 mM KCl; phosphate buffer pH 7.4; tested at 1.5 μM; 530 nm
[2] = tested on: A08min-GQD (nanocomplex 3) (DNA, aptamer) GGCAGTGTGGGCGAATCTATGCGTACCGTTCGATATCGTG; conditions: 137 mM NaCl, 2.7 mM KCl; phosphate buffer pH 7.4; OTA 0-1.2 μM; 525 nm; 0.12 mg/mL amSWCNT
[3] = tested on: A08min-RQD (nanocomplex 4) (DNA, aptamer) GGCAGTGTGGGCGAATCTATGCGTACCGTTCGATATCGTG; conditions: 137 mM NaCl, 2.7 mM KCl; phosphate buffer pH 7.4; OTA 0-1.2 μM; 650 nm; 0.12 mg/mL amSWCNT
[4] = tested on: 1.12.2-GQD (nanocomplex 3) (DNA, aptamer) GATCGGGTGTGGGTGGCGTAAAGGGAGCATCGGACA; conditions: 120 mM NaCl, 5 mM KCl, 10 mM CaCl2, 10 mM HEPES pH 7.0 (buffer listed for 1.12.2 in supplement)
[5] = tested on: 1.12.2-RQD (nanocomplexes 4 and 5) (DNA, aptamer) GATCGGGTGTGGGTGGCGTAAAGGGAGCATCGGACA; conditions: 120 mM NaCl, 5 mM KCl, 10 mM CaCl2, 10 mM HEPES pH 7.0 (buffer listed for 1.12.2 in supplement)

Row | Compound | binding [1] | also measured
1 | O=C1C=C2C(=CCOC2O)O1 (centres unmarked) | no | 
2 | CC(=O)CC(c1ccccc1)c1c(O)c2ccccc2oc1=O (centres unmarked) | no | 
3 | CCCC[C@@H](C)[C@@H](OC(=O)C[C@@H](CC(=O)O)C(=O)O)[C@H](C[C@@H](C)C[C@H](O)CCCC[C@@H](O)C[C@H](O)[C@H](C)N)OC(=O)C[C@@H](CC(=O)O)C(=O)O | no | 
4 | C[C@@H]1Cc2c(Cl)cc(C(=O)N[C@@H](Cc3ccccc3)C(=O)O)c(O)c2C(=O)O1 |  | binding [2]: yes; binding [3]: yes; binding [4]: yes; binding [5]: yes
5 | C[C@@H]1Cc2ccc(C(=O)N[C@@H](Cc3ccccc3)C(=O)O)c(O)c2C(=O)O1 | no | 
